Results on two compounds are retold here after US20230303577A1, “TEMOZOLOMIDE ANALOGS AND METHODS OF USE” (St. John's Cancer Institute, priority 2020, published 2023).

Read-outs that look alike come from different tables or passages of the source.

In one data set the test system is U87MG Resistant. Kind of data set: AlamarBlue cell viability, U87MG TMZ resistant. The data set is classed as cell-based. Particulars: Homo sapiens, U-87 MG; 72 hours. The method, then: Cells were seeded in 96-well plates. The day after, cells were treated with various concentrations of temozolomide or TP3. Cell viability was measured by AlamarBlue™ cell viability reagent after 72 hours, considering the control level of cells to be 100%.
Background: Resazurin is reduced to fluorescent resorufin, in cell work by metabolically active cells.

In a further data set the test system is A172. Nature of the data set: cells. Particulars: Homo sapiens, A 172, 72 h, read-out: IC50, 72 h. The method, then:
(§1) The effect of selected compounds on glioma cells viability was determined. The cells were plated at 2000 cells/well in 96 well plates. The day after, cells were treated with various concentrations of temozolomide or VMY-TP analogs.
(§2) Activity of TP-RGD was assessed in glioma cell cultures, as described in Example 11.

The subject of the next data set is U87. Nature of the data set: cells. As to conditions: Homo sapiens, U-87 MG, 72 h. On the procedure: as §1, §2
Another data set relates to U251. Nature of the data set: cells. Particulars: Homo sapiens, U-251, 72 h, read-out: IC50 U251 cell proliferation (BrdU ELISA). For orientation: Dividing cells build labelled thymidine or BrdU into new DNA.
For data set [1] the following is noted: background statement; cited from earlier work.
The next data set deals with U87-Luc. Kind of data set: Orthotopic U87-Luc human glioblastoma tumor xenograft model. The data set is classed as in vivo, Athymic Nude mice. Particulars: 10 mg/kg oral gavage. On the procedure:
Animal studies were performed in accordance with Translational Drug Development, LLC IACUC-approved protocols. Intracranial tumors were generated by injecting 3×10^5 U87-Luc cells in […] of growth media into the right corpus striatum (1 mm anterior and 2 mm lateral to the bregma, depth of 3 mm) of Athymic Nude (Crl:NU(NCr)-Foxn1nu) mice (Charles River, Hollister, CA). Treatment was initiated 7 days after injection. […] Oral gavage treatments were formulated in 10% PEG300 in PBS. Bioluminescence (Total ROI, photons/s) images were performed under anesthesia once weekly starting on Day 1 (7 days post inoculation of U87-Luc cells) and body weights were recorded twice weekly. […] Upon peri-morbidity or at study end, mice were euthanized, brain tumor was excised from right side of brain, and a wet weight was recorded. If tumor was not grossly identifiable, expected tumor-region of the brain was collected. Tissue was fixed in formalin for 48-72 hours and then stored in 70% Ethanol.
A minimum of 100 μL/mouse of whole blood was collected via submandibular survival bleed on Day 10 and Day 27 from 3 mice per group (selected by TD2) from Groups 1, 2 and 4 for assessment of hematological toxicity. Blood was placed in K2-EDTA microtainer tubes (Becton, Dickinson & Co.; Franklin Lakes, NJ) and mixed thoroughly before CBC analysis at TD2.
On the technique in general: A xenograft is tissue or cells of one species grown in another, often human tumour cells in immunodeficient mice.

A further data set has as its system U87 cells. Nature of the data set: U87 subcutaneous flank xenograft GBM model. The format is in vivo, SCID mice. As to conditions: 20 mg/kg orally, once daily then every other day, 14 days. On the procedure: A suspension of U87 cells was prepared in 1×HBSS, pH 7.4 and mixed with an equal volume (1:1) of ice cold Matrigel®. Then, 0.1 mL of the cell suspension containing 5×10^6 cells was injected subcutaneously using a 22-gauge needle into the flank region of SCID mice. Animals were monitored daily during the period between inoculation and study initiation. Treatment was started when the average tumor size reached approximately ˜100 mm^3. The test (TP3) and Reference compound (TMZ) were administered orally at 20 mg/kg at a dose volume of 10 mL/Kg. The exact dose was administered based on individual animal body weight recorded during the study period. The TP3 and TMZ treatments were scheduled for once daily dosing for 14 days. However, the dose frequency had to be reduced from once daily to every other day, due to a 10-14% loss of body weight seen in the treated mice from Day 9 until study completion (FIG. 11D). The control group was administered vehicle alone. The test and reference compounds were formulated in 0.4% (v/v) Tween 80, 2% (v/v) Glycerol and 97.6% (v/v) of 30% (w/v) Captisol (SPECD). Number of mice per treatment cohort=8. Tumor growth was measured twice weekly using a digital Vernier caliper.

Description for U251: U87 cells were seeded at the density of 2,000 cells/well in 96-well plates and incubated overnight. The day after, cells were treated with various concentrations of Temozolomide or analogs for 72 hours. The BrdU ELISA proliferation assay was performed according to the manufacturer's instructions (Roche, #11647229001). Briefly, 20 μl of diluted BrdU labelling reagent was added to each well, to a final concentration of 10 μM BrdU per well. The cells were then incubated at 37° C. for 24 hours. Following this incubation, the labeling medium was aspirated from each well and 200 μl of Roche FixDenat fixing buffer was added. The plates were then incubated at 25° C. for 30 minutes. The fixing solution was removed, and 100 μl of Anti-BrdU-POD antibody was added to each well and incubated again at 25° C. for 90 minutes. Wells were rinsed three times with 200 μl of PBS, then 100 μl of Roche Substrate solution was added to each well. Following a 25 minute incubation at room temperature, the absorbance of each plate was read at 370 nm (reference wavelength: approx. 492 nm) on a Spectramax® i3x microplate reader.
The effect on U251 cell proliferation after 72 hours of treatment was also assessed using the BrdU ELISA cell proliferation assay as described in Example 11.

For `Cn1nnc2c(C(N)=O)ncn2c1=O` [TMZ, temozolomide], the IC50 in the data set on U87MG Resistant was above 1000 µM; with A172, above 100 µM; with U87 (read-out: IC50, 72 h, U87, MGMT −, Table 2) it was 208 µM; in the data set with U87 (read-out: IC50, 72 h, U87MG, MGMT −, Table 14) it was 440 µM; in the data set on U251, above 200 µM. The “retention in the cerebral parenchyma” value in data set [1] is 20%. Further, the “effect on body weight” value in the data set with U87-Luc (QD×5×4, compared to control) is listed as “impacted body weight”. For the same compound, in the data set with U87-Luc (QD×5×4, control 2.43E+08), the “day 22 mean BLI value” turned out to be 1.87E+06 photon/s.

In turn, `CCCCCCNC(=O)c1ncn2c(=O)n(C)nnc12` [TP3, N-hexyl-3-methyl-4-oxo-3,4-dihydroimidazo[5,1-d][1,2,3,5]tetrazine-8-carboxamide] displayed an IC50 in the data set with U87MG Resistant of 280 µM. Besides, the IC50 with U87 (read-out: IC50, 72 h) turned out to be 399 µM. Besides, in the data set with U87 cells, the tumor volume result was “significantly reduced” and the tumor weight entry was “significantly reduced”.
